Source: patent publication US10544112B2, “Identification of ebsulfur analogues with broad-spectrum antifungal activity” (priority 2017, dated 2020)
≈ marks a conversion by molar mass, not a printed value.

Assays:
[1] = system: Aspergillus terreus ATCC MYA-3633 (strain M); assay: Antifungal MIC determination, filamentous fungi spores; format: cell-based; settings: strain M; all compounds; spores
Summary of the method: (§1)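 Broth microdilution per CLSI M27-A3 (modified) in RPMI 1640 buffered to pH 7.0 with 0.165 M MOPS; yeast inocula grown in PDB, Aspergillus spores from PDA cultures at 25° C. Final drug 12.5-0.02 μg/mL, inoculum 5×10^3 CFU/mL; incubation 48 h at 35° C.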

[2] = system: Aspergillus nidulans ATCC 38163 (strain L); assay: as above; format: cell-based; settings: strain L; spores
Summary of the method: as §1

[3] = system: Aspergillus flavus ATCC MYA-3631 (strain K); assay: as above; format: cell-based; settings: all compounds
Summary of the method: as §1

[4] = system: C. albicans ATCC MYA-2310(S) (strain E); assay: Antifungal MIC determination (CLSI M27-A3, 96-well); format: cell-based, Candida albicans; settings: strain E; compounds 1-4n and AmB; 48 h, RPMI 1640
Summary of the method: as §1

[5] = system: C. albicans ATCC MYA-2876(S) (strain C); assay: as above; format: cell-based, Candida albicans; settings: strain C; compounds 1-4n and AmB; 48 h, RPMI 1640
Summary of the method: as §1

[6] = system: Candida krusei ATCC 6258 (strain I); assay: as above; format: cell-based; settings: strain I; compounds 1-4n and AmB; 48 h, RPMI 1640
Summary of the method: as §1

[7] = system: Candida albicans ATCC 10231 (strain A); assay: as above; format: cell-based; settings: strain A; compounds 1-4n and AmB; 48 h, RPMI 1640
Summary of the method: as §1

[8] = system: Candida parapsilosis ATCC 22019 (strain J); assay: as above; format: cell-based; settings: strain J; compounds 1-4n and AmB; 48 h, RPMI 1640
Summary of the method: as §1

[9] = system: Candida glabrata ATCC 2001 (strain H); assay: as above; format: cell-based; settings: strain H; compounds 1-4n and AmB; 48 h, RPMI 1640
Summary of the method: as §1

[10] = system: C. albicans ATCC 90819(R) (strain D); assay: microbe, parasite or virus in culture; format: cell-based, Candida albicans; settings: strain D; compounds 1-4n and AmB; 48 h, RPMI 1640
Summary of the method: as §1

[11] = system: C. albicans ATCC MYA-1237(R) (strain F); assay: microbe, parasite or virus in culture; format: cell-based, Candida albicans; settings: strain F; compounds 1-4n and AmB; 48 h, RPMI 1640
Summary of the method: as §1

[12] = system: C. albicans ATCC 64124 (strain B); assay: microbe, parasite or virus in culture; format: cell-based, Candida albicans; settings: strain B; compounds 1-4n and AmB; 48 h, RPMI 1640
Summary of the method: as §1

[13] = system: C. albicans ATCC MYA-1003(R) (strain G); assay: microbe, parasite or virus in culture; format: cell-based, Candida albicans; settings: strain G; compounds 1-4n and AmB; 48 h, RPMI 1640
Summary of the method: as §1

Compound | MIC-0 [1] | MIC-0 [2] | MIC-0 [3] | MIC-0 [4] | MIC-0 [5] | MIC-0 [6] | MIC-0 [7] | MIC-0 [8] | MIC-0 [9] | MIC-0 [10] | MIC-0 [11] | MIC-0 [12] | MIC-0 [13]
CCCCCn1sc2ccccc2c1=O [Compound 3a] | ≤0.02 µg/mL | ≤0.02 µg/mL | ≤0.02 µg/mL | 0.39 µg/mL (≈ 1.76 µM) | 0.78 µg/mL (≈ 3.52 µM) | 0.78 µg/mL (≈ 3.52 µM) | 1.56 µg/mL (≈ 7.05 µM) | 0.78 µg/mL (≈ 3.52 µM) | 1.56 µg/mL (≈ 7.05 µM) | 1.56 µg/mL (≈ 7.05 µM) | 0.78 µg/mL (≈ 3.52 µM) | 0.39 µg/mL (≈ 1.76 µM) | 0.78 µg/mL (≈ 3.52 µM)
CCCCCCn1sc2ccccc2c1=O [Compound 3b] | ≤0.02 µg/mL | ≤≤0.02 μg/mL | ≤0.02 µg/mL | 0.78 µg/mL (≈ 3.31 µM) | 0.78 µg/mL (≈ 3.31 µM) | 0.78 µg/mL (≈ 3.31 µM) | 1.56 µg/mL (≈ 6.63 µM) | 0.78 µg/mL (≈ 3.31 µM) | 1.56 µg/mL (≈ 6.63 µM) | 1.56 µg/mL (≈ 6.63 µM) | 1.56 µg/mL (≈ 6.63 µM) | 1.56 µg/mL (≈ 6.63 µM) | 0.78 µg/mL (≈ 3.31 µM)
CC(C)(C)n1sc2ccccc2c1=O [Compound 3g] | 0.10 µg/mL (≈ 0.482 µM) | 0.10 µg/mL (≈ 0.482 µM) | 0.10 µg/mL (≈ 0.482 µM) | 1.56 µg/mL (≈ 7.53 µM) | 3.13 µg/mL (≈ 15.1 µM) | 0.78 µg/mL (≈ 3.76 µM) | 0.78 µg/mL (≈ 3.76 µM) | 1.56 µg/mL (≈ 7.53 µM) | 1.56 µg/mL (≈ 7.53 µM) | 1.56 µg/mL (≈ 7.53 µM) | 1.56 µg/mL (≈ 7.53 µM) | 1.56 µg/mL (≈ 7.53 µM) | 1.56 µg/mL (≈ 7.53 µM)
